The record followed here is PMC7139703, “Thiopurine Derivative-Induced Fpg/Nei DNA Glycosylase Inhibition: Structural, Dynamic and Functional Insights” (International Journal of Molecular Sciences, 2020).

Where two headings read alike, the source gives them in different places.

One experiment has as its target hNeil1 (Homo sapiens, UniProt Q96FI4). Put plainly: EMSA, hNeil1 DNA binding to THF-containing DNA duplex. The note with it: Figure 4.
The target of another experiment is T1, mvNei1 (Acanthamoeba polyphaga mimivirus, UniProt Q5UQ00).
T1 construct: 6His (C); made in house; host or cells: E. coli Rosetta2 (DE3)
T1 sequence (Q5UQ00 whole entry): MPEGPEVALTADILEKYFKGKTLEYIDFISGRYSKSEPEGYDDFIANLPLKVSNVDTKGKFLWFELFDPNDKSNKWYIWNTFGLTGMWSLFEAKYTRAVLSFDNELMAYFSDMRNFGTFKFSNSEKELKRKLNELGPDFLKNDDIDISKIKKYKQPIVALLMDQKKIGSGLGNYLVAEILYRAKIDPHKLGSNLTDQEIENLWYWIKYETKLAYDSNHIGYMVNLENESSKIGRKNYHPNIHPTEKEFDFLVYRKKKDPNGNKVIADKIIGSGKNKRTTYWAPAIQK
Put plainly: EMSA, mvNei1 DNA binding to THF-containing DNA duplex. As to conditions: Figure 4. Here is the method: Figure 4 Comparative analysis of the effect of 2TX and TXn on Fpg/Nei DNA glycosylases. Enzyme activities were measured as described in the Figure 1 legend using 0.1 nM of a 5′-[^32P]-24-mer DNA duplex containing either an 8-oxoG opposite C for LlFpg or a […] (DHU) opposite G for hNeil1 and mvNei1. The DNA probe was incubated with the indicated protein concentration and 0.2 mM TXn compounds in the presence or absence of 1 mM dithiothreitol (DTT) and TCEP (a representative experiment is illustrated by the upper histograms). […]
The DNA binding activity was measured using EMSA [37]. […] After electrophoresis, the gels were dried and exposed overnight for autoradiography using a Typhoon imager and quantified with ImageQuant software. To evaluate the inhibitor effect of 2TX/TXn on the DNA binding activity of each Fpg/Nei enzyme, we first determined the experimental conditions required to bind 50% of the DNA probes without an inhibitor in the presence of 8% DMSO (limiting enzyme concentration). […] This effect was determined by the addition of the thio-compound in the pre-equilibrium mixture of the enzyme and DNA probe (30 min) and incubated for an additional 30 min at 4 °C. For the best inhibitors of Fpg, a dose-response curve was established from at least three independent experiments and the IC50 was determined (IC50^B, Table 1).
For orientation: Mobility shift assays separate free from complexed probe on a gel.

A further experiment deals with T2, LlFpg (Lactococcus lactis subsp. cremoris, UniProt P42371).
T2 construct: made in house; host or cells: E. coli BH540 (fpg defective)
T2 sequence (P42371 2-273): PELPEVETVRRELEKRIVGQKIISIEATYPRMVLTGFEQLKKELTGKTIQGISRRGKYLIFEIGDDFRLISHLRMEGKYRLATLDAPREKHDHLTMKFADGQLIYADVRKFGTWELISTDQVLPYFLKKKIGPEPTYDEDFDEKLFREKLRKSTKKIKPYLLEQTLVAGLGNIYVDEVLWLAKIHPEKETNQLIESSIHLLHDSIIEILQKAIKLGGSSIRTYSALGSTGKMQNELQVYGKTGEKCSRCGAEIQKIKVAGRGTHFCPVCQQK
Put plainly: Enzyme kinetics of 8-oxoG excision by LlFpg in the presence of 2TX (double-reciprocal, Dixon, Cornish-Bowden plots). Format: biochemical. From the text:
Kinetic experiments with LlFpg in the presence of 2TX partially support this last hypothesis (Figure S3). Although LlFpg was inhibited by 2TX, as was its E. coli homolog (EcFpg), the raw kinetic data from all the experiments appeared to be very complicated and difficult to interpret. […] In this case, no inhibitory constant (Ki) can be determined. This mechanism (also supported by the inhibition suppression by TCEP, Figure S2) is likely superimposed on other inhibitory mechanisms, a factor that makes it difficult to analyze kinetic data. To clarify, we separately analyzed kinetic data obtained for low and high 2TX concentrations (Figure S3). As expected, we observed a linear dependence of the reciprocal velocity (1/v) as a function of the reciprocal substrate concentrations (1/S) with and without the inhibitor. […] These values compare well with those determined previously for the excision of FapyG and 8-oxoG by EcFpg. […] This value is consistent with an interaction of 2TX in the active site of the enzyme. This inhibitory mechanism has not been previously described for the EcFpg enzyme. […] This mode of inhibition is in agreement with the possibility that 2TX can bind outside the active site on the free and bound enzyme. […]

A further experiment has as its target T3, LlFpg/DNA complex C1 (Lactococcus lactis subsp. cremoris, UniProt P42371).
T3 construct: made in house; host or cells: E. coli BH540 (fpg defective)
Description: EMSA, Fpg DNA binding to 14-mer [THF:C] duplex, complex C1 (lesion recognition complex, Fpg/DNA 1/1). As to conditions: pre-incubation of Fpg 20 min at 4 °C; micromolar to millimolar inhibitor.

Sequence of hNeil1 (Q96FI4 2-290 limits assumed): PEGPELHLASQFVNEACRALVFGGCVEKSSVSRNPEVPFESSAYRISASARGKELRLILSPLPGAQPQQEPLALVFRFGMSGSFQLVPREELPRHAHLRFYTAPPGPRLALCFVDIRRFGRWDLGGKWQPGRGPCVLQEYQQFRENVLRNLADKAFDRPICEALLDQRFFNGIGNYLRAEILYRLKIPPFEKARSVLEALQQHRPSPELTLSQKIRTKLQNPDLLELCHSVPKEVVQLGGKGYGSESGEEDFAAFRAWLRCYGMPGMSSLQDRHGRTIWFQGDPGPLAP
T3 sequence (P42371 2-273, one chain of several): as the sequence (P42371 2-273) above

As for `O=c1[nH]c(=S)[nH]c2[nH]c(=S)[nH]c12` [TX19], the “effect on hNeil1 DNA binding activity” value on hNeil1 is listed as “apparent inhibitory effects”. Also, on mvNei1, the “effect on mvNei1 DNA binding activity” value is given as “apparent inhibitory effects”.
For `O=c1[nH]c(=S)[nH]c2nc[nH]c12` [Compound 2TX, 2-thioxanthine, reference compound], the Ki on LlFpg (high 2TX concentrations, uncompetitive, read-out: apparent Ki (Kiu)) was found to be 24.9 ± 6.56 µM; on LlFpg (low 2TX concentrations, partially competitive, read-out: apparent Ki (Kic)) it was 2.19 ± 0.56 µM. The “Fpg ability to bind DNA after pre-incubation with inhibitor” value on LlFpg/DNA complex C1 is “completely abolished”.
